Among the data in patent US12612410B2 (CHILDREN'S HOSPITAL MEDICAL CENTER, priority 2020, dated 2026) are IC50 values, retold here.

One test addresses T1, IRAK1 (Homo sapiens, UniProt P51617).
T1 construct: purchased Reaction Biology (RBC), HotSpot kinase assay
The test is described as follows: RBC HotSpot Kinase Assay, IRAK1. It counts as biochemical. The note with it: isolated kinase, 33P-ATP. From the text: (§1) This assay uses the isolated kinase enzyme. This assay is very useful for determining competition of the inhibitor for ATP and/or substrates and for measuring the kinetics of enzyme inhibition. […] Unlike kinase binding assays that measure competition for ATP, the HotSpot Kinase Assay is a functional assay that measures catalytic activity; as such it measures relative functional potency regardless of the mechanism of enzyme inhibition. This assay uses the form of the various enzymes that are easiest to express, which may not necessarily be the form of the enzyme that exist in the cell. (Sometimes the carboxy terminus has been truncated to aid in expression, or, if it is a receptor kinase, the enzyme itself is isolated from the other parts of the receptor that are involved in regulating kinase activity.)
(§2) The reagent used was as follows: Base Reaction buffer; 20 mM Hepes (pH 7.5), 10 mM MgCl2, 1 mM EGTA, 0.01% Brij35, 0.02 mg/ml BSA, 0.1 mM Na3VO4, 2 mM DTT, 1% DMSO. Required cofactors were added individually to each kinase reaction.
(§3) The reaction procedure was as follows: • 1) Substrates were prepared in freshly prepared Reaction Buffer. • 2) Any required cofactors were delivered to the substrate solution above. • 3) Kinase was delivered into the substrate solution and gently mixed. • 4) Compounds were delivered in 100% DMSO into the kinase reaction mixture by Acoustic technology (Echo550; nanoliter range), followed by incubation for 20 min at room temp. • 5)^33P-ATP was delivered into the reaction mixture to initiate the reaction. • 6) The mixture was incubated for 2 hours at room temperature. • 7) Kinase activity was detected by P81 filter-binding method.

A further test concerns MOLM14 D835Y cells. The test is described as follows: MOLM14 D835Y cell viability assay (Cell Titer Glo). It counts as cell-based. As for the experimental part: (§4) Both cell lines have activated FLT3 receptors, each of which carry additional resistance mutations in the kinase domain (D835Y and F691L, respectively).
(§5) MOLM14 D835Y and MOLM14 F691L cells were grown in RPMI-1640 media supplemented with 20% fetal bovine serum (FBS). For viability/cytotoxicity assessments, cells were seeded into 1536-well white polystyrene tissue culture-treated Greiner plates using a Multidrop Combi dispenser (ThermoFisher), in final volume 5 μL of growth media per well, at a density of 1000 cells per well. After cell addition, 23 nL of test compound were transferred into individual wells (22 doses tested for each test compound, with a 1:2 dilution series starting at 10 μM) via a 1536 pin-tool. Bortezomib (final concentration 2.3 μM) was used as a positive control for cell cytotoxicity. Plates were incubated for 48 hours at standard incubator conditions covered by a stainless steel gasketed lid to prevent evaporation. 48 hours post compound addition, 3 μL of Cell Titer Glo (Promega) were added to each well and plates were incubated at room temperature for 15 minutes with the stainless-steel lid in place. Luminescence readings were taken using a Viewlux imager (PerkinElmer) with a 2 second exposure time per plate.
In general terms: In ATP-based viability assays light output follows the ATP content of the culture.

The next test deals with MOLM14 F691L cells. The test is described as follows: MOLM14 F691L cell viability assay (Cell Titer Glo). It counts as cell-based. As for the experimental part:
as §4, §5

The target in another test is T2, IRAK4 (Homo sapiens, UniProt Q9NWZ3).
T2 sequence (Q9NWZ3 1-460): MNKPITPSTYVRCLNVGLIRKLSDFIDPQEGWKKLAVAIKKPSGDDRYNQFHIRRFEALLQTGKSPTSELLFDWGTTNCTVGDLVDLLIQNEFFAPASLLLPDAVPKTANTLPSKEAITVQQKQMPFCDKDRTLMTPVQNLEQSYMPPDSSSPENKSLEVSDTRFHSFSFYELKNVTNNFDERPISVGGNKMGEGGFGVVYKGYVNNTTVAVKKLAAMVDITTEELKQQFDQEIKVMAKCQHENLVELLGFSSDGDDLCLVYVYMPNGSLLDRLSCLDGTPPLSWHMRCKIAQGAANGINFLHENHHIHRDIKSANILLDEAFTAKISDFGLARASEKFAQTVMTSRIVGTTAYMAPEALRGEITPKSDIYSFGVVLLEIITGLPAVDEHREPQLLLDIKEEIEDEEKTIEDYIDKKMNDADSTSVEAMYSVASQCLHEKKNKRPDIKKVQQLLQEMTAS
The test is described as follows: RBC HotSpot Kinase Assay, IRAK4. It counts as biochemical. To be noted: isolated kinase, 33P-ATP. Further details: purchased Reaction Biology (RBC), HotSpot kinase assay.
From the text: as §1, §2, §3

For a further test, the target named is T3, FLT3 (Homo sapiens, UniProt P36888).
T3 sequence (P36888 27-993): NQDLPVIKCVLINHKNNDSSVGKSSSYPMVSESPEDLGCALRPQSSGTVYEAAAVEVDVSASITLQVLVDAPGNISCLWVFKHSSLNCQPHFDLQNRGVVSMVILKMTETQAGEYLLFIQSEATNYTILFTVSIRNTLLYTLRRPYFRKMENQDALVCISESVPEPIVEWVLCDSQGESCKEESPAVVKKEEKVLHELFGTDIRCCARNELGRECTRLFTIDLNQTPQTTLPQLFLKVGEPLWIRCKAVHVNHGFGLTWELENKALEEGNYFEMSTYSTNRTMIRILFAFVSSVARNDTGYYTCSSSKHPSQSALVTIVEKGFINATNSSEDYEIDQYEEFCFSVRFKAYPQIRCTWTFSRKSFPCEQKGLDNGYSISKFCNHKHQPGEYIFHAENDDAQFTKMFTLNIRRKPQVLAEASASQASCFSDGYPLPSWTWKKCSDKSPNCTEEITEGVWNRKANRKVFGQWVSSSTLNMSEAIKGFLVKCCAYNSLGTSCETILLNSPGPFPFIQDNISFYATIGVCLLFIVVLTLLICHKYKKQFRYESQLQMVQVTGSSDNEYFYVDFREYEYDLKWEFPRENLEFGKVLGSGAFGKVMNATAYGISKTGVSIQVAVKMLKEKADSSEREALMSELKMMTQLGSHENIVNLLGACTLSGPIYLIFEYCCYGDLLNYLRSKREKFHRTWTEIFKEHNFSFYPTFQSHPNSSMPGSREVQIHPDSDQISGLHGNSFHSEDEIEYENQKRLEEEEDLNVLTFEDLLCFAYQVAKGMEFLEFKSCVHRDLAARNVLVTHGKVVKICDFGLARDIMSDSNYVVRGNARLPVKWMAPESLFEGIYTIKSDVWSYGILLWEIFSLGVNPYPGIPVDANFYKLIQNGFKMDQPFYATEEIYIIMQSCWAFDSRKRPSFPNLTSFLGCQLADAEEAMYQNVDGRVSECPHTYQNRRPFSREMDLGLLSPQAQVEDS
The test is described as follows: RBC HotSpot Kinase Assay, FLT3. It counts as biochemical. Details: purchased Reaction Biology (RBC), HotSpot kinase assay. The note with it: isolated kinase, 33P-ATP.
From the text: as §1, §2, §3

T1 sequence (P51617 whole entry): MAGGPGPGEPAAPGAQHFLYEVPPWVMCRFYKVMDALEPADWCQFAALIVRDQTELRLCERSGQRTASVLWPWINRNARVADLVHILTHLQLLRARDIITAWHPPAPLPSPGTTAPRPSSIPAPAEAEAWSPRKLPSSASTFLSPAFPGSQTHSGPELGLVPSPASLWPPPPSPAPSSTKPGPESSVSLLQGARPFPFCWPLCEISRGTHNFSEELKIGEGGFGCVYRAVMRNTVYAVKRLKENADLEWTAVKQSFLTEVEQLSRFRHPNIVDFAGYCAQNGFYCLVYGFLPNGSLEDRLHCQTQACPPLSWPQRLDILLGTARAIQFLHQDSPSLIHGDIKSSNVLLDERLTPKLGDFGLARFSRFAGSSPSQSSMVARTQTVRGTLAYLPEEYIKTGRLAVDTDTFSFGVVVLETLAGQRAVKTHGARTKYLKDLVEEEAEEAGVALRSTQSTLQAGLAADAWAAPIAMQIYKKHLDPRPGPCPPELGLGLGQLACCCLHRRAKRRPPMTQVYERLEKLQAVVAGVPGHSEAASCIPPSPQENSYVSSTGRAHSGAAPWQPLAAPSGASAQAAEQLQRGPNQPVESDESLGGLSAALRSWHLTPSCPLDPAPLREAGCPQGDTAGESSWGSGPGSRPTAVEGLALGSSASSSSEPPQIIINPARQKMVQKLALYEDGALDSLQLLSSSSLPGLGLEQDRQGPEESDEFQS

`CC(O)(c1cn2c(-c3cc(F)cc(N[C@H]4CNC[C@@H]4F)n3)cnc2cn1)C(F)(F)F` (single isomer, unassigned) [Compound 83]: the half-maximal inhibitory concentration (IC50) was 0.329 µM against IRAK1; 0.344 µM in the test with MOLM14 D835Y cells (Homo sapiens, MOLM-14, 48 h); 0.486 µM with MOLM14 F691L cells (Homo sapiens, MOLM-14, 48 h); 0.028 µM on IRAK4; less than 0.0005 µM at FLT3.

Regarding `CC(O)(c1cn2c(-c3cc(F)cc(N[C@H]4CNC[C@@H]4F)n3)cnc2cn1)C(F)(F)F` (single isomer, unassigned) [Compound 84], the half-inhibitory concentration (IC50) against IRAK1 was 0.114 µM; in the test with MOLM14 D835Y cells (48 hours), 0.183 µM; in the test on MOLM14 F691L cells (48 hours) it was 0.41 µM; against IRAK4 it was 0.002 µM; against FLT3, 0.0006 µM.

`CC(O)(c1cn2c(-c3cc(F)cc(N[C@@H]4CCCNC4)n3)cnc2cn1)C(F)(F)F` (single isomer, unassigned) [Compound 85]: the IC50 is 0.106 µM on IRAK1; 0.154 µM in the test with MOLM14 D835Y cells (Homo sapiens, MOLM-14, 48 h); 0.29 µM in the test on MOLM14 F691L cells (Homo sapiens, MOLM-14, 48 h); 0.054 µM against IRAK4; 0.0006 µM against FLT3.

As for `CC(O)(c1cn2c(-c3cc(F)cc(N[C@H]4CNCC[C@@H]4F)n3)cnc2cn1)C(F)(F)F` (single isomer, unassigned) [Compound 86], the IC50 against IRAK1 amounted to 0.144 µM; in the test on MOLM14 D835Y cells (48 hours), 0.205 µM; in the test on MOLM14 F691L cells (Homo sapiens, MOLM-14, 48 h), 0.365 µM; at IRAK4 it was 0.065 µM; against FLT3, 0.0009 µM.

Turning to `CC(O)(c1cn2c(-c3cc(F)cc(N[C@@H]4CCCNC4)n3)cnc2cn1)C(F)(F)F` (single isomer, unassigned) [Compound 87], the IC50 against IRAK1 was 0.046 µM; in the test with MOLM14 D835Y cells (48 hours), 0.116 µM; in the test with MOLM14 F691L cells (48 hours), 0.309 µM; against IRAK4, 0.005 µM; on FLT3, 0.0007 µM.

`C[C@H]1CNC[C@@H]1Nc1cccc(-c2cnc3cnc(C4(C(F)(F)F)CC4)cn23)n1` [Compound 11, N-((3R,4S)-4-methylpyrrolidin-3-yl)-6-(6-(1-(trifluoromethyl)cyclopropyl)imidazo[1,2-a]pyrazin-3-yl)pyridin-2-amine]: the IC50 against IRAK1 is 0.301 µM; in the test on MOLM14 D835Y cells (Homo sapiens, MOLM-14, 48 h), 0.015 µM; at IRAK4, 0.003 µM; on FLT3, less than 0.0005 µM.

Consider `FC(F)c1cn2c(-c3cccc(N[C@@H]4CCNC4)n3)cnc2cn1` [Compound 18, (R)-6-(6-(difluoromethyl)imidazo[1,2-a]pyrazin-3-yl)-N-(pyrrolidin-3-yl)pyridin-2-amine], for which the IC50 at IRAK1 is 0.082 µM; in the test on MOLM14 D835Y cells (Homo sapiens, MOLM-14, 48 h), 0.014 µM; against IRAK4 it was 0.001 µM; against FLT3 it was less than 0.0005 µM.

`C[C@H]1CNC[C@@H]1Nc1cccc(-c2cnc3cnc(C(C)(C)O)cn23)n1` [Compound 29, 2-(3-(6-(((3R,4S)-4-methylpyrrolidin-3-yl)amino)pyridin-2-yl)imidazo[1,2-a]pyrazin-6-yl)propan-2-ol]: the IC50 at IRAK1 was 0.273 µM; in the test on MOLM14 D835Y cells (Homo sapiens, MOLM-14, 48 h), 0.042 µM; against IRAK4 it was 0.001 µM; against FLT3, 0.0006 µM.

Consider `Cn1cc(-c2cn3c(-c4cccc(N[C@@H]5CCNC5)n4)cnc3cn2)cn1` [Compound 49, (R)-6-(6-(1-methyl-1H-pyrazol-4-yl)imidazo[1,2-a]pyrazin-3-yl)-N-(pyrrolidin-3-yl)pyridin-2-amine], for which the IC50 at IRAK1 is 0.196 µM; in the test on MOLM14 D835Y cells (Homo sapiens, MOLM-14, 48 h), 0.009 µM; at IRAK4 it was 0.001 µM; against FLT3, less than 0.0005 µM.

In the case of `c1cc(N[C@H]2CNCC23CC3)nc(-c2cnc3cnccn23)c1` [Compound 71, (R)-N-(6-(imidazo[1,2-a]pyrazin-3-yl)pyridin-2-yl)-5-azaspiro[2.4]heptan-7-amine], the IC50 against IRAK1 was 0.966 µM; against IRAK4, 0.002 µM; against FLT3, less than 0.0005 µM.

In the case of `CC1(C)CNCC1Nc1cccc(-c2cnc3cnccn23)n1` (stereo not shown) [Compound 72], the results for the half-maximal inhibitory concentration (IC50) at IRAK1, at IRAK4 and on FLT3 were 4.19 µM, 0.014 µM and less than 0.0005 µM, respectively.

Turning to `C[C@H]1CNC[C@@H]1Nc1cccc(-c2cnc3cnccn23)n1` [Compound 73, 6-(imidazo[1,2-a]pyrazin-3-yl)-N-((3R,4S)-4-methylpyrrolidin-3-yl)pyridin-2-amine], the values for the IC50 against IRAK1, at IRAK4 and against FLT3 were 0.622 µM, 0.002 µM and less than 0.0005 µM, respectively.

Consider `CC1(C)CCNCC1Nc1cccc(-c2cnc3cnccn23)n1` (stereo not shown) [Compound 74, N-(4,4-dimethylpiperidin-3-yl)-6-(imidazo[1,2-a]pyrazin-3-yl)pyridin-2-amine], for which the IC50 was 4.78 µM against IRAK1, 0.014 µM against IRAK4 and less than 0.0005 µM on FLT3.

As for `CC(O)(c1cn2c(-c3cccc(N[C@@H]4CCCNC4)n3)cnc2cn1)C(F)(F)F` (stereo partly drawn) [Compound 79, 1,1,1-trifluoro-2-(3-(6-((R)-piperidin-3-ylamino)pyridin-2-yl)imidazo[1,2-a]pyrazin-6-yl)propan-2-ol], the IC50 is 0.084 µM in the test on MOLM14 D835Y cells (Homo sapiens, MOLM-14, 48 h) and 0.237 µM in the test with MOLM14 F691L cells (Homo sapiens, MOLM-14, 48 h).

As for `CCOc1cn2c(-c3cccc(N[C@H]4CNC[C@@H]4F)n3)cnc2cn1` [compound 57, 6-(6-ethoxyimidazo[1,2-a]pyrazin-3-yl)-N-((3S,4S)-4-fluoropyrrolidin-3-yl)pyridin-2-amine], the figures for the IC50 on IRAK1, against IRAK4 and against FLT3 were 0.165 µM, 0.002 µM and less than 0.0005 µM, respectively.

On to `O=C1CC2(COC2)CN1c1cn2c(-c3cccc(N[C@H]4CNC[C@@H]4F)n3)cnc2cn1` [compound 62, 6-(3-(6-(((3S,4S)-4-fluoropyrrolidin-3-yl)amino)pyridin-2-yl)imidazo[1,2-a]pyrazin-6-yl)-2-oxa-6-azaspiro[3.4]octan-7-one], for which the IC50 against IRAK1 is 7.01 µM; against IRAK4 it was 0.086 µM; against FLT3 it was less than 0.0005 µM.

As a reminder, the IC50 is the concentration needed to halve the response being measured.
